Results: US20090068143A1, “ORALLY EFFECTIVE C[…]” (priority 2005, published 2009)
Marks after values point to notes of the source that are not given here.

Legend:
[1] = Stability in aqueous solutions; format: physicochemical; settings: 2 mg/ml in phosphate buffer (pH 7.0), 4° C.
Description: Stability of compounds of the invention in aqueous solutions was compared. Compounds were dissolved in buffer phosphate solutions and their concentration monitored using HPLC and spectrophotometer methodology. While compound 18F at concentration of 2 mg/ml in phosphate buffer (pH 7.0) was stable for at least 3 months at 4° C., compound 18B at concentration of 95 μg/ml in citrate buffer (pH 7.1) readily hydrolyzed in less than 24 hours at 4° C. Therefore, compounds that were designed following the same rational yielded unexpectedly divergent outcome, for instance in connection with stability in aqueous solutions.

[2] = test system: CB1; assay: Real-time RT-PCR gene expression in CNS of MOG induced EAE: CB1; format: in vivo, mouse; settings: 40 mg/kg p.o., day 31; over naive animals, normalized to cyclophilin
Description: (§1) Total RNA is prepared using SV total RNA isolation system (Promega). The brains and spinal cords, which were removed on day 31 from five animals treated with vehicle (i.e. untreated) or 40 mg/kg p.o. of compound 18F (i.e. treated) in the MOG-induced EAE study, were homogenized in lysis buffer. The lysates were transferred to an RNA isolation column, treated with DNAse, washed and eluted according to kit instructions. RNA concentrations were determined using GeneQuant II (Pharmacia-Amersham). Complementary DNA (cDNA) was synthesized from total RNA using […] II reverse transcriptase (Life Technologies). […] Quantitative real-time RT-PCR included 1 μl of the cDNA, 300 nM of the appropriate forward and reverse primers (according to the gene monitored) and 7.5 μl of the reaction mix containing buffer, nucleotides, Taq polymerase and SYBER green (SYBER Green master mix, Applied Biosystems), in a total reaction volume of 15 μl. […] During each annealing step, the amount of the amplified product was measured by the fluorescence of the double strand DNA binding dye, SYBER Green. The cycle of threshold (CT), representing the PCR cycle at which an increase in fluorescence above a baseline signal can be first detected, was determined for each product. […] Results were expressed as fold increase of gene expression in treated or untreated animals above the naive animals. […]

[3] = test system: CB2; assay: Real-time RT-PCR gene expression in CNS of MOG induced EAE: CB2; format: in vivo, mouse; settings: 40 mg/kg p.o., day 31, over naive animals
Description: as §1

[4] = test system: IL-1β; assay: Real-time RT-PCR gene expression in CNS of MOG induced EAE: IL-1β; format: in vivo, mouse
Description: Total RNA is prepared using SV total RNA isolation system (Promega). The brains and spinal cords, which were removed on day 31 from five animals treated with vehicle (i.e. untreated) or 40 mg/kg p.o. of compound 18F (i.e. treated) in the MOG-induced EAE study, were homogenized in lysis buffer. The lysates were transferred to an RNA isolation column, treated with DNAse, washed and eluted according to kit instructions. RNA concentrations were determined using GeneQuant II (Pharmacia-Amersham). Complementary DNA (cDNA) was synthesized from total RNA using […] II reverse transcriptase (Life Technologies). 2 μg of total RNA were combined with an oligo (dT)15 primer, 0.5 mM dNTP mix, 8 units of reverse transcriptase and other reaction components up to a final volume of 20 μl, according to the kit instructions. The reaction mixture was incubated at 42° C. for 45 min and inactivated at 70° C. for 15 minutes. Quantitative real-time RT-PCR included 1 μl of the cDNA, 300 nM of the appropriate forward and reverse primers (according to the gene monitored) and 7.5 μl of the reaction mix containing buffer, nucleotides, Taq polymerase and SYBER green (SYBER Green master mix, Applied Biosystems), in a total reaction volume of 15 μl. Gene amplification was obtained using the GeneAmp 5700 sequence detection system (Applied Biosystems). […] During each annealing step, the amount of the amplified product was measured by the fluorescence of the double strand DNA binding dye, SYBER Green. The cycle of threshold (CT), representing the PCR cycle at which an increase in fluorescence above a baseline signal can be first detected, was determined for each product. […] Results were expressed as fold increase of gene expression in treated or untreated animals above the naive animals. […]
The results expressed as folds gene expression over naive animals (following normalization to Cyclophilin) are compiled in the following table. […] Statistical significance was analyzed by unpaired two-tailed t-test and one asterisk (*) indicates statistical significance of p<0.05, whereas ** indicates statistical significance of p<0.01.

[5] = test system: inflammatory pain; assay: Inflammatory pain and paw edema, λ carrageenan; format: in vivo, Sprague Dawley rats; settings: for ΔLT between hind paws, thermal stimulus: 3 hours; for reduction of delta force between paws, tactile stimulus: vehicle 31 g
Description: Male Sprague Dawley rats (average body weight 200 g, Harlan, Israel) were transiently sedated by placement on dry ice for the duration of the injections. Rats were injected subcutaneously, in the subplantar region of one (right) paw with 0.1 ml of 2% w/v λ Carrageenan in sterile saline. […] Test compounds were administered p.o. by oral gavage immediately after the carrageenan injection as pretreatment. Vehicle (PB) treated animals were used as controls. Before induction of inflammatory pain and three hours after injection, the animals reactions to pain stimuli were tested in two systems. The first stimulus was thermal and assessed by the Plantar Test according to Hargreaves, using Ugo Basile Model 7370. The scale was set to an intensity of 50 arbitrary units. The latency time till the animal lift a paw as a reaction to the thermal stimulus was recorded for both the inflamed and non-inflamed hind paws. The second stimulus was mechanical (tactile) and assessed using a Dynamic Plantar Sesthesiomether (Ugo Basile Model 73400-002). […] Finally, the impact on paw edema was assessed. Paw thickness is measured using a dial thickness gauge (Spring-dial, constant low pressure gauge, Mitutoyo, TG/L-1, 0.00 mm) and paw volume is measured using a plethysmometer (model #7150, Ugo Basile, Italy). At the end of the study, animals were euthanized with an i.p. injection of 100 mg/kg pentobarbitone.
The results are measured as the differences between the two hind paws at time 0 and 3 hours both as ALT, for the latency time in the thermal part of the study, and as ΔForce, for the mechanical part of the study. The paw volume is expressed as percent from vehicle treated animals. Results are expressed as mean±SEM for each treatment group and the differences among those groups are analyzed by analysis of variance (ANOVA) followed by post-hoc Tukey's test. A value of p<0.05 was considered to be statistically significant and is indicated on the figure by an asterisk over the relevant treatment group.

[6] = test system: PLP induced remitting-relapsing EAE; assay: PLP induced remitting-relapsing EAE

## CCCCCCC(C)(C)c1cc(O)c([C@H]2CC(=O)C3CC2C3(C)C)c(OC(=O)/C=C/C(=O)O)c1 (single isomer, unassigned; (-)) [Compound 18F, (−)-4-{4-[1,1-Dimethylheptyl]-2-fumarate-6-hydroxy-phenyl}-6,6-dimethyl-bicyclo[3.1.1]heptan-2-one]
[1]
  time stable in solution: at least 3 months
[2]
  Fold gene expression CB1, Brain, Treated: 1 fold
  Fold gene expression CB1, Spinal Cord, Treated: 1 fold
[3]
  Fold gene expression CB2, Spinal Cord, Treated: 2 fold
[3]; untreated −13
  Fold gene expression CB2, Brain, Treated: 1* fold
[4]; 40 mg/kg p.o., day 31, over naive animals, untreated 5.5
  Fold gene expression IL-1β, Brain, Treated: 3* fold
[4]; 40 mg/kg p.o., day 31, over naive animals, untreated 11
  Fold gene expression IL-1β, Spinal Cord, Treated: 4* fold
[4]; treated p.o., untreated 5 to 11-fold
  IL-1β overexpression in brain and spinal cord: 3-4 fold
[5]; 10 mg/kg p.o.
  decrease in paw volume: 6%
  percent reduction of delta force, tactile stimulus: 23%
  reduction of ΔLT, thermal stimulus: no reduction
[5]; 10 mg/kg p.o., vehicle about 7.5
  ΔLT between hind paws, thermal stimulus: 7.5 s
[5]; 20 mg/kg p.o.
  decrease in paw volume: 18%
  paw volume, percent of vehicle: 82%
  reduction of ΔLT, thermal stimulus: 69%
  ΔLT between hind paws, thermal stimulus: 2.3 s
  reduction of delta force between paws, tactile stimulus: 18 g
[5]; 30 mg/kg p.o.
  reduction of ΔLT, thermal stimulus: 88%
  ΔLT between hind paws, thermal stimulus: 0.9 s
  reduction of delta force between paws, tactile stimulus: 19 g
[5]; 30 mg/kg p.o., significant
  decrease in paw volume: 52%
[5]; 20 and 30 mg/kg p.o.
  percent reduction of delta force, tactile stimulus: about 60%
[5]; single dose of 20 mg/kg p.o.
  reduction in Δforce, mechanical stimulus: 58%
[6]; 40 mg/kg p.o. daily for 25 days
  relapse postponed as compared to controls: 5 to 7 days
[6]; 40 mg/kg p.o. daily for 25 days from day 25, controls 0.7 and 0.8
  clinical score of the second peak: 0.5
[6]; 40 mg/kg p.o. for 25 days
  side effects: No side effects were observed
[6]; 40 mg/kg p.o., day 35 to day 58, control 8.1
  AUC of clinical score: 2.1
[6]; 40 mg/kg p.o., day 35 to day 58, p=0.0025
  reduction in AUC as compared to control: 74%
[6]; 40 mg/kg p.o., day 38 till end of study
  average reduction of clinical score: 28%
